Assay results reported in ChEMBL document CHEMBL1201862, “PubChem BioAssay data set” (2004).
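The compound was tested at five concentrations on cells cultured in 96-well plates, with a 48-hour exposure period. GI50: concentration for 50% inhibition of growth.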 Calls of active or inactive are those of the source. Rule as the data show it: active = GI50 up to about 1.1 µM and inactive = higher.

How the values were obtained:
Experiment in all cases: growth of human tumour cells (NCI), 48 h
OVCAR-4 = system: OVCAR-4
M14 = system: M14
HT-29 = system: HT-29
NCI/ADR-RES = system: NCI/ADR-RES
OVCAR-3 = system: OVCAR-3
COLO 205 = system: COLO 205
Hs-578T = system: Hs-578T
NCI-H522 = system: NCI-H522
ACHN = system: ACHN
HCT-116 = system: HCT-116
CAKI-1 = system: CAKI-1
SK-MEL-2 = system: SK-MEL-2
RPMI-8226 = system: RPMI-8226
SNB-19 = system: SNB-19
OVCAR-5 = system: OVCAR-5
SF-539 = system: SF-539
UO-31 = system: UO-31
T47D = system: T47D
Malme-3M = system: Malme-3M
BT-549 = system: BT-549

| SMILES | GI50 (OVCAR-4) | GI50 (M14) | GI50 (HT-29) | GI50 (NCI/ADR-RES) | GI50 (OVCAR-3) | GI50 (COLO 205) | GI50 (Hs-578T) | GI50 (NCI-H522) | GI50 (ACHN) | GI50 (HCT-116) | GI50 (CAKI-1) | GI50 (SK-MEL-2) | GI50 (RPMI-8226) | GI50 (SNB-19) | GI50 (OVCAR-5) | GI50 (SF-539) | GI50 (UO-31) | GI50 (T47D) | GI50 (Malme-3M) | GI50 (BT-549) |
| --- | --- | --- | --- | --- | --- | --- | --- | --- | --- | --- | --- | --- | --- | --- | --- | --- | --- | --- | --- | --- |
| CC(C)(C)[Si](C)(C)OCC1CCC(n2cnc3c(=O)[nH]cnc32)O1 (configuration not stated) | > 100 µM (inactive) | > 100 µM (inactive) | > 100 µM (inactive) | 45.6 µM (inactive) | > 100 µM (inactive) | > 100 µM (inactive) | 58.2 µM (inactive) | > 100 µM (inactive) | > 100 µM (inactive) | > 100 µM (inactive) | > 100 µM (inactive) | > 100 µM (inactive) | 65.5 µM (inactive) | > 100 µM (inactive) | > 100 µM (inactive) | > 100 µM (inactive) | > 100 µM (inactive) | 82.8 µM (inactive) | 78.9 µM (inactive) | – |
| C=C1c2nc3ccccc3n2C=C(c2ccccc2)N1c1ccc(C)cc1 | 71.8 µM (inactive) | > 100 µM (inactive) | – | 37.7 µM (inactive) | 75 µM (inactive) | 73.5 µM (inactive) | – | 35.1 µM (inactive) | 53.5 µM (inactive) | 36.9 µM (inactive) | 32.8 µM (inactive) | > 100 µM (inactive) | 19.5 µM (inactive) | > 100 µM (inactive) | > 100 µM (inactive) | 63.8 µM (inactive) | 36.1 µM (inactive) | – | > 100 µM (inactive) | 49.9 µM (inactive) |
| Cc1cnc(Cl)nc1C(C#N)c1nc2ccccc2s1 (configuration not stated) | 22.8 µM (inactive) | 28 µM (inactive) | 29.6 µM (inactive) | 22 µM (inactive) | 25.5 µM (inactive) | 14.2 µM (inactive) | – | 2.84 µM (inactive) | 18.7 µM (inactive) | 10.5 µM (inactive) | 22.4 µM (inactive) | – | 12.6 µM (inactive) | 34.2 µM (inactive) | 25.8 µM (inactive) | 25.8 µM (inactive) | 31.7 µM (inactive) | 34.1 µM (inactive) | 9.31 µM (inactive) | 12.4 µM (inactive) |
| COc1cc2c[n+](C)c3c4cc(OC)c(OCc5ccccc5)cc4c(OCc4ccccc4)cc3c2cc1OC | 4.11 µM (inactive) | 9.66 µM (inactive) | 3.61 µM (inactive) | 84.7 µM (inactive) | 2.51 µM (inactive) | 0.429 µM (active) | – | 0.416 µM (active) | > 75.2 µM (inactive) | 3.76 µM (inactive) | 35.2 µM (inactive) | 2.1 µM (inactive) | 25.7 µM (inactive) | 0.923 µM (active) | > 29.6 µM (inactive) | 2.57 µM (inactive) | > 100 µM (inactive) | 5.22 µM (inactive) | 2.22 µM (inactive) | 2.21 µM (inactive) |
| C=C1C(C)C2C(Cc3ccccc3)NC(=O)C23C(OC(C)=O)C=CC(C)(O)C(=O)C(C)C/C=C/C3C1O (configuration not stated) | 3.55 µM (inactive) | 7.24 µM (inactive) | – | > 65.9 µM (inactive) | 22.4 µM (inactive) | 0.535 µM (active) | 0.0652 µM (active) | 2.43 µM (inactive) | 0.889 µM (active) | 3.54 µM (inactive) | 0.129 µM (active) | 6.22 µM (inactive) | 5.98 µM (inactive) | 0.217 µM (active) | 68.9 µM (inactive) | 0.117 µM (active) | 0.296 µM (active) | – | 30.5 µM (inactive) | 0.407 µM (active) |
| O=S(=O)(c1ccccc1)N1CCCC(c2ccccc2)CC1 (configuration not stated) | 79.1 µM (inactive) | > 100 µM (inactive) | 15.1 µM (inactive) | 38 µM (inactive) | 53.2 µM (inactive) | 42 µM (inactive) | – | 35.4 µM (inactive) | 29.2 µM (inactive) | 38.3 µM (inactive) | > 100 µM (inactive) | 45.9 µM (inactive) | 16.4 µM (inactive) | 93.8 µM (inactive) | > 100 µM (inactive) | > 100 µM (inactive) | 55 µM (inactive) | 44.1 µM (inactive) | 30.8 µM (inactive) | 58.3 µM (inactive) |
| NS(=O)(=O)c1nnc(NS(=O)(=O)c2ccc([N+](=O)[O-])cc2)s1 | > 100 µM (inactive) | > 100 µM (inactive) | > 100 µM (inactive) | > 100 µM (inactive) | > 100 µM (inactive) | > 100 µM (inactive) | – | 29.6 µM (inactive) | > 100 µM (inactive) | > 100 µM (inactive) | > 100 µM (inactive) | > 100 µM (inactive) | 21.4 µM (inactive) | – | > 100 µM (inactive) | > 100 µM (inactive) | > 100 µM (inactive) | 34.9 µM (inactive) | > 100 µM (inactive) | > 100 µM (inactive) |
| Cc1ccc(NC(=O)CC/C(CC(=O)c2ccc(Cl)cc2)=N\NC(=O)C(=O)NN)cc1C | > 100 µM (inactive) | > 100 µM (inactive) | > 100 µM (inactive) | – | > 100 µM (inactive) | > 100 µM (inactive) | – | > 100 µM (inactive) | > 100 µM (inactive) | > 100 µM (inactive) | > 100 µM (inactive) | > 100 µM (inactive) | > 100 µM (inactive) | > 100 µM (inactive) | > 100 µM (inactive) | > 100 µM (inactive) | > 100 µM (inactive) | – | > 100 µM (inactive) | – |
| Cc1cc2c3c(coc3c1-c1c(C)cc3c4c(coc14)C(=O)C(O)=C3C(C)C)C(=O)C(O)=C2C(C)C | 6.79 µM (inactive) | 11.7 µM (inactive) | 3.94 µM (inactive) | – | 5.45 µM (inactive) | 2.41 µM (inactive) | – | 5.92 µM (inactive) | 3.51 µM (inactive) | 3.54 µM (inactive) | 12.8 µM (inactive) | 4.74 µM (inactive) | 4.68 µM (inactive) | 4.35 µM (inactive) | 17.9 µM (inactive) | 3.44 µM (inactive) | 16.6 µM (inactive) | – | 15.6 µM (inactive) | – |
| Cc1cc(C=O)c2c(=O)c3c(O)ccc(/C=C/C(C)C)c3oc2c1 | 31.4 µM (inactive) | 42.1 µM (inactive) | > 100 µM (inactive) | – | 43.2 µM (inactive) | > 100 µM (inactive) | – | 28.7 µM (inactive) | 46.3 µM (inactive) | 20.9 µM (inactive) | 64.7 µM (inactive) | > 100 µM (inactive) | 23.1 µM (inactive) | > 100 µM (inactive) | > 100 µM (inactive) | > 100 µM (inactive) | > 100 µM (inactive) | – | > 100 µM (inactive) | – |
| CCOc1ccc(NCc2cc(OC)c(OC)c(OC)c2)cc1 | 41.6 µM (inactive) | 0.371 µM (active) | 0.366 µM (active) | 0.324 µM (active) | 0.339 µM (active) | 0.384 µM (active) | 1.38 µM (inactive) | 0.333 µM (active) | 10.7 µM (inactive) | 0.427 µM (active) | – | – | 0.944 µM (active) | 1.95 µM (inactive) | – | 0.486 µM (active) | 4.8 µM (inactive) | – | – | 0.12 µM (active) |
| Cc1ccc(S(=O)(=O)Nc2cccc3c(=O)nc[nH]c23)cc1 | > 100 µM (inactive) | > 100 µM (inactive) | > 100 µM (inactive) | – | > 100 µM (inactive) | > 100 µM (inactive) | – | 76.6 µM (inactive) | 66.8 µM (inactive) | 99.3 µM (inactive) | > 100 µM (inactive) | > 100 µM (inactive) | 17.8 µM (inactive) | > 100 µM (inactive) | > 100 µM (inactive) | > 100 µM (inactive) | > 68.1 µM (inactive) | – | > 100 µM (inactive) | – |
| NC(CCCCNC(=O)OCc1ccccc1)C(=O)NC(CCCCNC(=O)OCc1ccccc1)C(=O)ON1C(=O)CCC1=O (configuration not stated) | – | > 100 µM (inactive) | > 100 µM (inactive) | – | – | > 100 µM (inactive) | > 100 µM (inactive) | – | > 100 µM (inactive) | > 100 µM (inactive) | – | > 100 µM (inactive) | > 100 µM (inactive) | > 100 µM (inactive) | > 100 µM (inactive) | – | > 100 µM (inactive) | > 100 µM (inactive) | 61.4 µM (inactive) | > 100 µM (inactive) |
| CC(=O)Nc1ccc(/N=C2\C(c3ccccc3)=C(SC3=C(c4ccccc4)/C(=N\c4ccc(NC(C)=O)cc4)c4ccccc43)c3ccccc32)cc1 | 29.6 µM (inactive) | 27 µM (inactive) | 36.7 µM (inactive) | 27.2 µM (inactive) | 27.4 µM (inactive) | 32 µM (inactive) | – | 28.4 µM (inactive) | 31.8 µM (inactive) | 34.4 µM (inactive) | 31.4 µM (inactive) | 39.5 µM (inactive) | 19.4 µM (inactive) | 56 µM (inactive) | 51.5 µM (inactive) | < 0.01 µM (active) | 24.7 µM (inactive) | 12.9 µM (inactive) | 27.2 µM (inactive) | 24.8 µM (inactive) |
| CN(C)/C(N)=N\C#N | > 100 µM (inactive) | > 100 µM (inactive) | > 100 µM (inactive) | – | > 100 µM (inactive) | 59.4 µM (inactive) | – | > 100 µM (inactive) | > 100 µM (inactive) | > 100 µM (inactive) | > 100 µM (inactive) | > 100 µM (inactive) | 64.7 µM (inactive) | > 100 µM (inactive) | > 100 µM (inactive) | > 100 µM (inactive) | > 100 µM (inactive) | – | > 100 µM (inactive) | – |
| COc1ccc(/C=C2\N=C(SC)N(CN3CCCCC3)C2=O)cc1 | > 100 µM (inactive) | > 100 µM (inactive) | > 100 µM (inactive) | > 100 µM (inactive) | > 100 µM (inactive) | > 100 µM (inactive) | > 100 µM (inactive) | > 100 µM (inactive) | > 100 µM (inactive) | > 100 µM (inactive) | – | > 100 µM (inactive) | > 100 µM (inactive) | > 100 µM (inactive) | > 100 µM (inactive) | – | > 100 µM (inactive) | – | > 100 µM (inactive) | – |
